In general, IC50 refers to the concentration needed to halve the response being measured. As usually defined, the Kd is a measure of binding affinity in units of concentration. As a reminder, the half-life is the time needed for the level to fall by half in the phase considered.

One series addresses JAK3 (Homo sapiens (Human), UniProt P52333). The series can be described thus: JAK3 Z'-LYTE kinase assay. It counts as biochemical. Particulars: 1 h pre-incubation, Km ATP. As for the experimental part:
(§1) BMX, TXK, EGFR, ERBB2, ERBB4, JAK3, BLK kinase activity was measured using the Z′-LYTE assay at Thermo Fisher. A 10-point dose response (final concentration in assay ranged from 10 μM to 0.5 nM in 3-fold dilution per dilution step) was generated with 1 h incubation of the test compound with the kinase prior to initiation of the kinase reaction by the addition of ATP. ATP concentration in the assay was Km ATP for the different kinases. IC50 values are determined by curve fitting of the experimental results at Thermo Fisher.

The next series deals with CYP2C9 (Homo sapiens (Human), UniProt P11712). The series can be described thus: CYP inhibition, CYP2C9. It counts as in vitro ADME.
Sequence of CYP2C9 (P11712 whole entry): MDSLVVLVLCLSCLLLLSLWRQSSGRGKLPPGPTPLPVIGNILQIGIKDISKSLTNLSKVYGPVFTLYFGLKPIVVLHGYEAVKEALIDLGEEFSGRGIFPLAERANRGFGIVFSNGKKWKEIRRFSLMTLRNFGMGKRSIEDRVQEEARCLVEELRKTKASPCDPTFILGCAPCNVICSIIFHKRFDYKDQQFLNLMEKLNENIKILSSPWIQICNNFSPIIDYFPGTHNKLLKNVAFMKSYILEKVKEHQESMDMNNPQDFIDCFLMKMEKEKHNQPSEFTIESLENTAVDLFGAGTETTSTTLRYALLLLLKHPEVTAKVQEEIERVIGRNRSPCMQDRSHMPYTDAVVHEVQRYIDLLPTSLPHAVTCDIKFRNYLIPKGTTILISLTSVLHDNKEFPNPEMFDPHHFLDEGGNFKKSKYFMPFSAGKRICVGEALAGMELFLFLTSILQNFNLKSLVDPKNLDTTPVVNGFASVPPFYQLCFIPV
Another series concerns the target ERBB4 (Homo sapiens (Human), UniProt Q15303). The series is described as follows: ERBB4 Z'-LYTE kinase assay. The following applies: 1 h pre-incubation, Km ATP. It counts as biochemical. As for the experimental part: as §1
For a further series, the target named is TXK (Homo sapiens (Human), UniProt P42681). The series is described as follows: DiscoveRx Kd dose response, TXK. The class given is binding. The protocol: (§2) Kinase profiling was performed with M27 was done at DiscoveRx at a single dose of 1 μM on all available kinases (KINOMEscan). The overall kinase selectivity score is in Table 6. […] Kinases inhibited >65% at 1 μM for M27 were followed up with a dose response at DiscoveRx. The M27 had IC50 values <1 μM for almost the same set of kinases with exception of TXK, but with additional inhibition of BRK (PTK6).
Sequence of TXK (P42681 whole entry): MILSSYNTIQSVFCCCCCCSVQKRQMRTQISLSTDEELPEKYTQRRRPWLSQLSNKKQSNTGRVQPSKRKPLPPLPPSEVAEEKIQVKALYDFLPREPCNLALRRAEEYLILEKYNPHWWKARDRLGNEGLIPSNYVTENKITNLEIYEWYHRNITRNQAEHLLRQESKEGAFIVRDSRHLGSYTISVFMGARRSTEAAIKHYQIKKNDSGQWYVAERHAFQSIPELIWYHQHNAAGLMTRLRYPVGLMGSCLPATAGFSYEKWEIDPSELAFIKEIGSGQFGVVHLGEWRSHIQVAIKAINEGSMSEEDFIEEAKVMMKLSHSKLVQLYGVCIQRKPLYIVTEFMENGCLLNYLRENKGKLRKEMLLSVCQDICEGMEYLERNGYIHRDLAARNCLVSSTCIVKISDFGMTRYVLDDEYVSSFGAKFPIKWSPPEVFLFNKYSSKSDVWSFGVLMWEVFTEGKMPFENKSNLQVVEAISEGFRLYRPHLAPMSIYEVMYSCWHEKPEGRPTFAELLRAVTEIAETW

Another series has as its target MEK5 (Homo sapiens (Human), UniProt Q13163). The series can be described thus: DiscoveRx Kd dose response, MEK5. The class given is binding. The protocol: as §2
In another series the target is CYP1A2 (Homo sapiens (Human), UniProt P05177).
Sequence of CYP1A2 (P05177 whole entry): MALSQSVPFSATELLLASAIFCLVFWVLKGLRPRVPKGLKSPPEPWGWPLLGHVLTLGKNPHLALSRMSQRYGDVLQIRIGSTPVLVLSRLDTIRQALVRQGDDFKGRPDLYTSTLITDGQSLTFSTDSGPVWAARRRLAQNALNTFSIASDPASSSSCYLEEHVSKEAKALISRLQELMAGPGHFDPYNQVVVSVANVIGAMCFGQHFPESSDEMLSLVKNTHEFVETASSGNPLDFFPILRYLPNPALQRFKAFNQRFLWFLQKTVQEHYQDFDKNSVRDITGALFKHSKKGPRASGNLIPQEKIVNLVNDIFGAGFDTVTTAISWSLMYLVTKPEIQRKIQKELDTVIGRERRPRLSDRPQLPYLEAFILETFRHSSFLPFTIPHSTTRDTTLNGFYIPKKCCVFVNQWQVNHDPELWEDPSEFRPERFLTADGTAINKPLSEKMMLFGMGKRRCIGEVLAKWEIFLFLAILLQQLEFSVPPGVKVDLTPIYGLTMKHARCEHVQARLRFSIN
In another series the target is BTK (Homo sapiens (Human), UniProt Q06187). The series is described as follows: BTK target occupancy ELISA in Ramos B cells. It counts as cell-based. Particulars: 2h incubation. The protocol:
Ramos B cells (ATCC, cat no. CRL-1923) were plated in 24-wells culture plates at 2×10^6 cells per well in a total volume of 900 μL DMEMF12+10% FBS+2 mM L-Glutamine+Pen/Strep. Allow the cells to rest 1 h at 5-7% CO2 and 37° C. Serial dilutions log 10 from 10 mM to 316 nM of test compounds are made in 100% DMSO, followed by a 100-fold dilution into culture medium. For each well, 100 μL was then transferred to well plate containing 900 μL of Ramos B cells. Final compound concentration range in the assay varied from 10 μM to 0.316 nM, with a final DMSO concentration of 0.1% and incubated at 5-7% CO2 and 37° C. for 2h. Afterwards, cells are collected for the measurement of the BTK target occupancy using the BTK target occupancy ELISA as outlined below. The percent of drug-bound BTK in Ramos B cell samples was determined by an ELISA based method as follows: OptiPlate 96-well plates (Perkin Elmer) were coated with 125 ng/well anti-BTK Ab (BD Biosciences) and blocked with BSA (Sigma-Aldrich). […] One hundred L/well of SuperSignal ELISA Femto Substrate (ThermoFisher Scientific) was added and then chemiluminescence was measured after 1 minute (EnVision® plate reader; PerkinElmer). The percent of BTK occupancy for each sample was calculated relative to the vehicle control. […] Ramos cells were incubated with a dose range of M27 and BTK target occupancy was determined by ELISA.
Background: An ELISA detects its analyte on a solid surface through an enzyme-linked reagent.

Series [1] is described as follows: Clinical pharmacokinetics of acalabrutinib and its major metabolite. It counts as in vivo, human. The following applies: human, in vivo; single oral dose of 100 mg acalabrutinib; read-out: median terminal elimination half-life (t½) (converted). The source says: The compound of Formula (I) was identified as the major metabolite in plasma with a geometric mean exposure (AUC) approximately 2- to 3-fold higher than the exposure of acalabrutinib.
Acalabrutinib and the major metabolite form a covalent bond with a cysteine residue in the BTK active site, leading to inhibition of BTK enzymatic activity. Acalabrutinib binding with the cysteine residue occurs rapidly and irreversibly and provides high target occupancy at steady state.

In the next series the target is CYP2C8 (Homo sapiens (Human), UniProt P10632). The series is described as follows: CYP inhibition, CYP2C8. The class given is in vitro ADME.

Sequence of JAK3 (P52333 whole entry): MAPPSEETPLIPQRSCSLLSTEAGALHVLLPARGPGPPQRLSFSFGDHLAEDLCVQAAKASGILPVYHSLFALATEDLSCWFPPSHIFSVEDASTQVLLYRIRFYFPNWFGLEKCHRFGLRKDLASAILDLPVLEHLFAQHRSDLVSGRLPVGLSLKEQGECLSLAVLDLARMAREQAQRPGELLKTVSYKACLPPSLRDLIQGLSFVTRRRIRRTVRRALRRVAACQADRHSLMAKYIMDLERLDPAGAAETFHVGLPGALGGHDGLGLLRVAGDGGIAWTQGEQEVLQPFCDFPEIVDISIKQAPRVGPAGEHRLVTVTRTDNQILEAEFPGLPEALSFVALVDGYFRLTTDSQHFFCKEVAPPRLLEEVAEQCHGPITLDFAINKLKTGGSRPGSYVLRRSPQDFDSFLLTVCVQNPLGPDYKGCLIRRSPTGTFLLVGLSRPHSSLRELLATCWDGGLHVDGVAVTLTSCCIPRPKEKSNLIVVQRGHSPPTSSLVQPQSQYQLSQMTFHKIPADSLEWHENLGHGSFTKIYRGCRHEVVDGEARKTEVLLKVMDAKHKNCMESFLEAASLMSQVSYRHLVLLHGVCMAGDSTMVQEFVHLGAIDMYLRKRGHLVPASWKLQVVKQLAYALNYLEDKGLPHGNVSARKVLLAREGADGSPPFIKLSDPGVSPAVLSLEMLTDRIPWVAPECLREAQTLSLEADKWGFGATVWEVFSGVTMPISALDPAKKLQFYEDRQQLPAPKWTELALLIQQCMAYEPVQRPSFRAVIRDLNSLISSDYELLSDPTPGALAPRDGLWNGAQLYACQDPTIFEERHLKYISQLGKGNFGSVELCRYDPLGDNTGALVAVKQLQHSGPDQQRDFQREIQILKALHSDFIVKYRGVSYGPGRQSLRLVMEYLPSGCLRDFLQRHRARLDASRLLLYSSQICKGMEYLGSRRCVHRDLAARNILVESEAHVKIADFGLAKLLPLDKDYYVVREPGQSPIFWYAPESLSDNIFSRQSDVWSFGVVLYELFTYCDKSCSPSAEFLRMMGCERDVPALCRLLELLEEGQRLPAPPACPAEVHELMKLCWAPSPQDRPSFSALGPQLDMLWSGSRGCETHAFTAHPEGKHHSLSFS
Sequence of BTK (Q06187 whole entry): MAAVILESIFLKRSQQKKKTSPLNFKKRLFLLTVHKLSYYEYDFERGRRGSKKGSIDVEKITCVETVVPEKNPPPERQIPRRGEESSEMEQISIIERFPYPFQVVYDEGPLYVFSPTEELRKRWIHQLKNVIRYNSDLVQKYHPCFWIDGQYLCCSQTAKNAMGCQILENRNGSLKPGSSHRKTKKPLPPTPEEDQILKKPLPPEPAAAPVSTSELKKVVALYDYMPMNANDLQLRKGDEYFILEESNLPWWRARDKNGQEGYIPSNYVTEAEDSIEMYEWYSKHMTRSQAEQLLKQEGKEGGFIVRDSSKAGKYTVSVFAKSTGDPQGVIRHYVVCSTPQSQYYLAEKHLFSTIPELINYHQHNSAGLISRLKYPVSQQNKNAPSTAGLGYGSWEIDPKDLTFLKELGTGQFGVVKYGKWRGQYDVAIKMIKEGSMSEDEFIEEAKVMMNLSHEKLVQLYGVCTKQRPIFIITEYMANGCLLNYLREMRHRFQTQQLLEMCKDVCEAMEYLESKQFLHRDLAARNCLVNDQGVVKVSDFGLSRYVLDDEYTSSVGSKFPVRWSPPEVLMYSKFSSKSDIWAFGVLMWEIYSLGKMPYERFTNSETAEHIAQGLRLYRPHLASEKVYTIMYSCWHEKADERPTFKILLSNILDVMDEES
Sequence of ERBB4 (Q15303 26-1308): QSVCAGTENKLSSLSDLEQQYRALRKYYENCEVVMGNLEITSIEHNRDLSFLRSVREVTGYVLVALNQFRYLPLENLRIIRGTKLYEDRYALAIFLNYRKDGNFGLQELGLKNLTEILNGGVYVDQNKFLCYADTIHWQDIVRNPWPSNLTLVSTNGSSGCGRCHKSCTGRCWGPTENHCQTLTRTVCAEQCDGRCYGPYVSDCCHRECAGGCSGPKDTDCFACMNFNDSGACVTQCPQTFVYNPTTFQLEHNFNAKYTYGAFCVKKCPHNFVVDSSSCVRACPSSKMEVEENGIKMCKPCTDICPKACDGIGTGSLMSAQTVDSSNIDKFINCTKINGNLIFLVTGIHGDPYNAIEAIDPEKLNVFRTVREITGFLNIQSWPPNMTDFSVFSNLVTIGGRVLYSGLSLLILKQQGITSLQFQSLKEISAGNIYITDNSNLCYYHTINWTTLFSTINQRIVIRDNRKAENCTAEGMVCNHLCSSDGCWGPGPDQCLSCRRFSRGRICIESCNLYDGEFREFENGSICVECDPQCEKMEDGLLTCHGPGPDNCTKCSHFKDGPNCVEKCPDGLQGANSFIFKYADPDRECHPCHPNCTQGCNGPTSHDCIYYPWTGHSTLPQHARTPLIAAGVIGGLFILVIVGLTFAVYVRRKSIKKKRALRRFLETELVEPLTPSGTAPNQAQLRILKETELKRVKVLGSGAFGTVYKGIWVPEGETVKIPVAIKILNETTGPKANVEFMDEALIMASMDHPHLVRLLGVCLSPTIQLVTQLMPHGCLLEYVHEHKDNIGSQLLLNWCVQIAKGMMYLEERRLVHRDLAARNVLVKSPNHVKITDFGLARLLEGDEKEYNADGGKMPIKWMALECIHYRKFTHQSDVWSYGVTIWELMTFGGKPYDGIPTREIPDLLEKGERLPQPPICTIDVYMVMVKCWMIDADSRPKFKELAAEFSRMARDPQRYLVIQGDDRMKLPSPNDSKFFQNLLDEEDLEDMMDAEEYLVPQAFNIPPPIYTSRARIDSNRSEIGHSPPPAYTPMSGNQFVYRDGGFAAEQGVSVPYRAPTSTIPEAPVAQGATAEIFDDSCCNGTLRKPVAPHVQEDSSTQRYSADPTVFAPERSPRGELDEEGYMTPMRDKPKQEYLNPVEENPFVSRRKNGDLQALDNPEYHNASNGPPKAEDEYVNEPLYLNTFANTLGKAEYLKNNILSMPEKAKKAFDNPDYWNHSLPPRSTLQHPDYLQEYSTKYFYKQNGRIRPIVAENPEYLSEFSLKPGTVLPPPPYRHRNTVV
Sequence of MEK5 (Q13163 whole entry): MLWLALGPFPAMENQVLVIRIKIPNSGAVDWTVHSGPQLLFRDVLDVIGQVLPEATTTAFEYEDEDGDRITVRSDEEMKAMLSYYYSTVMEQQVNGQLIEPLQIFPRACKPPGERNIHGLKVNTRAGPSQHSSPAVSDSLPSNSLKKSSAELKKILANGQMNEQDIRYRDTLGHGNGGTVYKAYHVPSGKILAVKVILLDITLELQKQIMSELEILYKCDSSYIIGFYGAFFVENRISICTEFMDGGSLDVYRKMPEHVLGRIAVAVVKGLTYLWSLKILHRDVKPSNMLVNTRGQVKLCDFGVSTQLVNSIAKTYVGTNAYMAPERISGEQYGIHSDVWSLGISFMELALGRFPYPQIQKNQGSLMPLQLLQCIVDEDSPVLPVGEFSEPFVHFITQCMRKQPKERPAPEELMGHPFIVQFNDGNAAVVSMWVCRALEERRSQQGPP

For `CC#CC(=O)NCCCC(=O)c1nc(-c2ccc(C(=O)Nc3ccccn3)cc2)c2c(N)nccn12` [Formula (I), 4-(8-amino-3-(4-(but-2-ynamido)butanoyl)imidazo[1,5-a]pyrazin-1-yl)-N-(pyridin-2-yl)benzamide], the IC50 was > 10000 nM against JAK3, 343 ± 23 nM against ERBB4 and 39 nM against BTK. Besides, the CYP2C9 inhibition result at CYP2C9 is recorded as “weak inhibitor”. The Kd on TXK is 1100 nM; at MEK5, 69 nM. In addition, the CYP1A2 inhibition result at CYP1A2 was “does not inhibit”. Further, in series [1], the half-life was 6.9 h. On CYP2C8, the CYP2C8 inhibition result is “weak inhibitor”.

Source of the values: patent US10858364B2, “Imidazopyrazine inhibitors of Bruton's tyrosine kinase” (Acerta Pharma B.V., priority 2016, dated 2020).
